Like-named read-outs stand apart in the source and are kept apart here.
How the values were obtained:
[1] = tested on: human ovarian cancer cells A2780; test: Cell anti-proliferation assay (MTT), A2780; format: cell-based; conditions: incubated for 5 days
Procedure: (§1) Human breast cancer cells MCF-7, human ovarian cancer cells A2780, human mantle cell lymphoma cells JEKO-1. DMEM medium (Bio-Channel), DMSO (dimethyl sulfoxide), MTT (thiazolyl blue), 0.25% EDTA-Trypsin (trypsin digestive solution), 1×PBS (phosphate buffered saline, pH 7.2), 96-well plate (Corning), fetal bovine serum (FBS), 10,000 U/mL penicillin-G/streptomycin, high-speed refrigerated centrifuge (EPPENDORF 5810R), and microplate reader (Tecan Spark).
(§2) • A) Tumor cells were cultured in DMEM (high glucose, containing 10% FBS and 100 U/mL penicillin-G/streptomycin) at 37 °C, 5% CO2 and saturated humidity until 80-90% confluence. • B) The medium in the 10 cm culture dish was removed. • C) Cells were rinsed once with 10 mL of 1×PBS. • D) 4 mL of 0.25% EDTA-Trypsin was added, and the cells were digested in a 37 °C, 5% CO2 incubator for 5 minutes. The mixture was transferred to a 15 mL centrifuge tube, centrifuged at 200 g for 5 minutes, and the supernatant was discarded to obtain cell pellet. • E) The cells were resuspended in 4 mL of DMEM medium, counted, and adjusted to 50,000 cells/mL. • F) 100 µL of cell suspension was added to each well of a 96-well plate, and the plate was incubated overnight at 37 °C in a 5% CO2 incubator.
(§3) • A) Gradient dilution solutions of the test compounds were prepared: the test compound was prepared into a 1 mM stock solution. Then 1.5 µL of the stock solution was dissolved in 1.5 mL of DMSO-free medium, followed by 3-fold serial gradient dilution with medium containing 0.1% DMSO to give 9 concentrations.
(§4) • A) The cell culture plate was taken out, and 10 µL of 5 mg/mL MTT was added in a biological safety cabinet; • B) The plate was returned to the incubator and incubated for another 3 hours; • C) The cell culture plate was taken out and the medium was removed, 100 µL of isopropanol (containing 0.4 mM HCl, 0.1% NP-40) was added, and the plate was shaken at room temperature for 30 minutes; • D) The absorbance at 570 nm was measured using a TECAN microplate reader.

[2] = tested on: Human breast cancer cells MCF-7; test: Cell anti-proliferation assay (MTT), MCF-7; format: cell-based; conditions: MCF-7 cells, incubated for 5 days
Procedure: as §1, §2, §3, §4

[3] = tested on: human mantle cell lymphoma cells JEKO-1; test: Cell anti-proliferation assay (MTT), JEKO-1; format: cell-based; conditions: JEKO-1 cells, incubated for 5 days
Procedure: as §1, §2, §3, §4

[4] = Preclinical pharmacokinetic study in rats; format: in vivo, Sprague-Dawley (SD) rats; conditions: male SD rats, oral gavage (p.o.) 10 mg/kg, plasma; for AUC(0-t) / Cmax / Tmax: Sprague-Dawley, rat
Procedure: Healthy adult Sprague-Dawley (SD) rats, male, 6-8 weeks old, weighing 200-300 g. EDTA-Na2 anticoagulant. Analytical balance, animal weighing scale, magnetic stirrer, refrigerated centrifuge, single-channel manual pipette, etc. About 10 mg of the test sample was precisely weighed, dissolved in a calculated volume of 5% DMSO, followed by addition of 10% solutol HS-15 and 85% normal saline. The mixture was sonicated and vortexed to homogeneity to obtain a solution with a concentration of 1 mg/mL. The solution was freshly prepared before use. Animals were housed in rat cages and fasted overnight (no less than 10 h) before the test, with free access to water. On the day of the test, animals were weighed and marked on the tail. Blank blood samples were collected before administration. The blood was collected via tail vein. • Route of administration: oral gavage (p.o.) • Dose: 10 mg/kg • Dosing volume: 10 mL/kg • Procedure: The rat was held upright with the left hand wearing bite-resistant glove. A 16-gauge gavage needle was inserted through the mouth into the esophagus. The needle was advanced gently without obvious resistance, and the drug solution was injected into the stomach. Whole blood (0.1 mL) were collected from each test animal before administration and at 0.5 […], and 24 h after administration into EDTA-Na2 anticoagulant tubes. The tubes were inverted 3-4 times for mixing, then centrifuged at 10,000 g for 5 min at 4 °C to separate plasma. Plasma samples were stored at -80 °C until analysis. Blood was collected via tail vein. […] The mixture was vortexed for 2 min and centrifuged at 10,000 g for 10 min at 4 °C. Processing of unknown plasma samples: 25 μL of drug-containing rat plasma was transferred, followed by addition of 25 μL of methanol and 200 μL of internal standard solution. The mixture was vortexed for 2 min and centrifuged at 10,000 g for 10 min at 4 °C. The supernatant was collected for LC-MS/MS analysis. A quantitative method for the determination of the test compound was established using a Shimadzu liquid chromatography system coupled with Triple Quad^TM 6500+ AB mass spectrometer. The concentration of the parent drug in plasma was determined. The plasma concentration-time curve was plotted, and the main pharmacokinetic parameters were calculated using a non-compartmental model in winnonlin Phoenix software.

CN1CCCn2c1nc1c(F)cc(-c3nc(NC4CCN(S(C)(=O)=O)CC4)ncc3Cl)cc12 [TB-43, 5-chloro-4-(9-fluoro-1-methyl-1,2,3,4-tetrahydrobenzo[4,5]imidazo[1,2-a]pyrimidin-7-yl)-N-(1-(methylsulfonyl)piperidin-4-yl)pyrimidin-2-amine]
IC50 [1]: ≤ 500 nM
IC50 ([2]; read-out: MCF7 IC50): ≤ 500 nM
IC50 [3]: ≤ 500 nM

COC(=O)N1CCC(Nc2ncc(Cl)c(-c3cc(F)c4nc5n(c4c3)CCCN5C)n2)CC1 [TB-93, methyl 4-((5-chloro-4-(9-fluoro-1-methyl-1,2,3,4-tetrahydrobenzo[4,5]imidazo[1,2-a]pyrimidin-7-yl)pyrimidin-2-yl)amino)piperidine-1-carboxylate]
IC50 ([1]; Homo sapiens, 120 h): ≤ 500 nM
IC50 ([2]; Homo sapiens, MCF7, 120 h): 500 to 2000 nM
IC50 ([3]; Homo sapiens, 120 h): ≤ 500 nM

CC(C)N1CCCn2c1nc1c(F)cc(-c3nc(N[C@@H]4CCOC[C@H]4O)ncc3Cl)cc12 [TB-108, (3S,4R)-4-((5-chloro-4-(9-fluoro-1-isopropyl-1,2,3,4-tetrahydrobenzo[4,5]imidazo[1,2-a]pyrimidin-7-yl)pyrimidin-2-yl)amino)tetrahydro-2H-pyran-3-ol]
IC50 ([1]; Homo sapiens, 120 h): ≤ 500 nM
IC50 ([2]; Homo sapiens, MCF7, 120 h): ≤ 500 nM
AUC(0-t) [4]: 1370 ng·h/mL
Cmax [4]: 503 ng/mL
Tmax [4]: 36 min
HL_ [4]: 1.25 h
IC50 ([3]; Homo sapiens, 120 h): ≤ 500 nM

CCN1CCCn2c1nc1c(F)cc(-c3nc(N[C@@H]4CCOC[C@H]4O)ncc3Cl)cc12 [TB-109, (3S,4R)-4-((5-chloro-4-(1-ethyl-9-fluoro-1,2,3,4-tetrahydrobenzo[4,5]imidazo[1,2-a]pyrimidin-7-yl)pyrimidin-2-yl)amino)tetrahydro-2H-pyran-3-ol]
IC50 ([1]; Homo sapiens, 120 h): ≤ 500 nM
IC50 ([2]; Homo sapiens, MCF7, 120 h): 500 to 2000 nM
AUC(0-t) [4]: 1770 ng·h/mL
Cmax [4]: 777 ng/mL
Tmax [4]: 30 min
HL_ [4]: 5.32 h
IC50 ([3]; Homo sapiens, 120 h): ≤ 500 nM

CN1CCC(C)(C)n2c1nc1c(F)cc(-c3cc(N[C@@H]4CCOC[C@H]4O)ncc3Cl)cc12 [TB-150]
IC50 ([1]; Homo sapiens, 120 h): ≤ 500 nM
IC50 ([2]; Homo sapiens, MCF7, 120 h): ≤ 500 nM
IC50 ([3]; Homo sapiens, 120 h): ≤ 500 nM

C[C@H]1C[C@H](C)n2c(nc3c(F)cc(-c4nc(N[C@@H]5CCOC[C@H]5O)ncc4Cl)cc32)N1C [TB-153]
IC50 [1]: ≤ 500 nM
IC50 ([2]; read-out: MCF7 IC50): ≤ 500 nM
IC50 [3]: ≤ 500 nM

C[C@H]1CC(=O)N(C)c2nc3c(F)cc(-c4cc(N[C@@H]5CCOC[C@H]5O)ncc4Cl)cc3n21 [TB-158]
IC50 ([1]; Homo sapiens, 120 h): ≤ 500 nM
IC50 ([2]; Homo sapiens, MCF7, 120 h): ≤ 500 nM
IC50 ([3]; Homo sapiens, 120 h): ≤ 500 nM

C[C@H]1CCN(CC(F)F)c2nc3c(F)cc(-c4nc(N[C@@H]5CCOC[C@H]5O)ncc4Cl)cc3n21 [TC-6]
IC50 ([1]; Homo sapiens, 120 h): ≤ 500 nM
IC50 ([2]; Homo sapiens, MCF7, 120 h): 500 to 2000 nM
IC50 ([3]; Homo sapiens, 120 h): ≤ 500 nM

C[C@H]1CCN(S(C)(=O)=O)c2nc3c(F)cc(-c4nc(N[C@@H]5CCOC[C@H]5O)ncc4Cl)cc3n21 [TC-8]
IC50 ([1]; Homo sapiens, 120 h): 500 to 2000 nM
IC50 ([2]; Homo sapiens, MCF7, 120 h): > 2000 nM
IC50 ([3]; Homo sapiens, 120 h): > 2000 nM

C[C@H]1CCN(c2c(F)cccc2F)c2nc3c(F)cc(-c4nc(N[C@@H]5CCOC[C@H]5O)ncc4Cl)cc3n21 [TC-15]
IC50 ([1]; Homo sapiens, 120 h): 500 to 2000 nM
IC50 ([2]; Homo sapiens, MCF7, 120 h): 500 to 2000 nM
IC50 ([3]; Homo sapiens, 120 h): 500 to 2000 nM

C[C@H]1CCN(c2cc(F)ccc2F)c2nc3c(F)cc(-c4nc(N[C@@H]5CCOC[C@H]5O)ncc4Cl)cc3n21 [TC-16]
IC50 ([1]; Homo sapiens, 120 h): ≤ 500 nM
IC50 ([2]; Homo sapiens, MCF7, 120 h): ≤ 500 nM
IC50 ([3]; Homo sapiens, 120 h): ≤ 500 nM

C[C@H]1CCN(c2ccccc2C#N)c2nc3c(F)cc(-c4nc(N[C@@H]5CCOC[C@H]5O)ncc4Cl)cc3n21 [TC-18]
IC50 ([1]; Homo sapiens, 120 h): ≤ 500 nM
IC50 ([2]; Homo sapiens, MCF7, 120 h): ≤ 500 nM
IC50 ([3]; Homo sapiens, 120 h): ≤ 500 nM
